Where two headings read alike, the source gives them in different places.
What was measured:
[1] = Mechanical stress of the crystal form (ball milling, PXRD); assay type: physicochemical; conditions: for Crystal form after ball milling: ball mill 400 r/min, PXRD, duplicate mortars; for change of crystal form under ball milling pressure: ball milled for 30 min, 4 h and 6 h
Procedure: Samples were taken when the ball milled at 30 min, 4 h and 6 h respectively, and then for PXRD test. The change of crystal form was observed, and the experiment was carried out parallelly in duplicate.

[2] = Pharmacokinetics of Crystal Form A and Crystal Form B capsules in beagle dogs; assay type: in vivo
Procedure: There were 12 beagle dogs for the experiment, half male and half female, weighing 11.0-14.1 kg, provided by the Teaching and Experimental Ground of Agricultural College of Shanghai Jiao Tong University. The animals were raised in single cage, and the feeding amount can be adjusted according to the weight or feed intake of the animals. The animals can drink water freely, with 12/12 h light/dark cycle adjustment, constant temperature of 23±1° C., humidity of 50-60%. On the day of administration, the experimental animals were fasted overnight before administration. […] The animals were weighed on the day of administration, and the dosage was determined according to their body weight. The above-mentioned grouped beagle dogs were administered according to the method in Table 5 below. [table] 1 mL of whole blood was collected from the cephalic vein at blood collection time points of 0.0830, 0.250, 0.500, 1.00, 2.00, 4.00, 8.00, 24.00 h after administration. […] The analytical method was performed by liquid chromatography tandem triple quadrupole mass spectrometry (LC MS/MS). […] The peak concentration (Cmax) and the peak time (Tmax) were obtained from the plasma concentration-time curve graph. The log-linear trapezoidal method (see: Gabrielsson J, Weiner D. Pharmacokinetic and pharmacodynamic data analysis: concepts and applications[M]. CRC Press, 2001, pages 141-146) was used to calculate the following parameters: elimination phase half-life (T1/2), mean retention time extrapolated from zero time point to infinity (MRT0-inf), mean retention time from zero time point to the last detectable concentration time point (MRT0-last), the area under the plasma concentration-time curve from the zero time point to the last detectable concentration time point (AUC0-last), and the area under the plasma concentration-time curve extrapolated from the zero time point to infinity (AUC0-inf). The experimental data was expressed as the mean (Mean)±standard deviation (S.D.). The excel software t-test was used for statistical comparison.

[3] = Crystalline stability: stability factors test at high humidity, high temperature and light (PXRD and HPLC content); assay type: physicochemical; conditions: for Content (%): HPLC content (w/w, %); for Crystal form: PXRD; for content (all conditions) / morphology of crystal form: high humidity, high temperature and light, each for 10 days
Source text: The samples were taken at day 5 and day 10 respectively for PXRD (polycrystalline X ray diffraction) detection and HPLC content (w/w, %) determination, and the results were compared with that of day 0.

[4] = beagle dogs, PO 5 mg/kg, capsule, n = 6
[5] = beagle dogs, PO 5 mg/kg, capsule, x ± s, n = 6
[6] = Day 10 at high humidity (R.H. 92.5%)
[7] = Day 10 at high temperature (60° C.)

Row | Crystal form after ball milling ([1]; 30 min) | Crystal form after ball milling ([1]; 4 h) | Crystal form after ball milling ([1]; 6 h) | change of crystal form under ball milling pressure [1] | Content (%) ([3]; Day 0) | Crystal form ([3]; Day 0) | Content (%) [3, 6] [%] | Crystal form [3, 6] | Content (%) [3, 7] [%] | Crystal form [3, 7] | Content (%) ([3]; Day 10 at light (4500±500 lx)) | Crystal form ([3]; Day 10 at light (4500±500 lx)) | content (all conditions) [3] [%] | morphology of crystal form [3] | SMILES | other results
1 | Crystal Form B | Crystal Form B + | Crystal Form B + | its crystal form changed significantly | 96.70 | Crystal Form B | 96.67 | Crystal Form B + | 96.65 | Crystal Form B + | 96.69 | Crystal Form B + | ≥ 96.0 | could not remain stable | CN1CCc2ccc(OCCCN3CCC(c4noc5cc(F)ccc45)CC3)cc2C1=O [Crystal Form B, 7-(3-(4-(6-fluorobenzo[d]isoazol-3-yl)piperidin-1-yl)propoxy)-2-methyl-3,4-dihydroisoquinolin-1(2H)-one] | T1/2 [2, 4]: 2.1 h; Tmax [2, 4]: 1.7 h; AUC0-inf [2, 5]: 2186 ± 82.1 ng·h/mL; AUC0-last [2, 5]: 2039 ± 81.9 ng·h/mL; Cmax [2, 5]: 426 ± 32.75 ng/mL
2 | Crystal Form A | Crystal Form A | Crystal Form A | its crystal form did not change | 97.21 | Crystal Form A | 97.18 | Crystal Form A | 97.15 | Crystal Form A | 97.13 | Crystal Form A | ≥ 97.0 | stable | CN1CCc2ccc(OCCCN3CCC(c4noc5cc(F)ccc45)CC3)cc2C1=O [Crystal Form A, 7-(3-(4-(6-fluorobenzo[d]isoazol-3-yl)piperidin-1-yl)propoxy)-2-methyl-3,4-dihydroisoquinolin-1(2H)-one] | half-life ([2]; both sexes, beagle, dog, plasma, po, 5 mg/kg, beagle dogs, PO 5 mg/kg, capsule, n = 6): 2.9 h; Tmax ([2]; both sexes, beagle, dog, plasma, po, 5 mg/kg, beagle dogs, PO 5 mg/kg, capsule, n = 6, read-out: Tmax): 2.6 h; AUC(0-t) ([2]; both sexes, beagle, dog, plasma, po, 5 mg/kg, beagle dogs, PO 5 mg/kg, capsule, x ± s, n = 6): 2840 ± 77.8 ng·h/mL; AUC0-inf ([2]; both sexes, beagle, dog, plasma, po, 5 mg/kg, beagle dogs, PO 5 mg/kg, capsule, x ± s, n = 6, read-out: AUC0-inf): 2990 ± 82 ng·h/mL; Cmax ([2]; both sexes, beagle, dog, plasma, po, 5 mg/kg, beagle dogs, PO 5 mg/kg, capsule, x ± s, n = 6, read-out: Cmax): 645 ± 37.2 ng/mL; bioavailability ([2]; both sexes, beagle, dog, plasma, po, 5 mg/kg, read-out: relative bioavailability (F)): 137%
